Test results: US20250255867A1 (Kadmon Corporation, LLC, priority 2022, published 2025)

Experiments:
Format in all cases: in vivo, human
subjects with BOS = assay: Example 3: FEV1 evaluation in BOS
Method: Patients with BOS were identified as: 1) % predicted forced expiratory volume in 1 second (% FEV1) of £79% at enrollment, and 2) clinician attribution of lung disease due to cGVHD.
In Example 1, lung function assessments were conducted at baseline and on Day 1 of each cycle for patients with suspected of known lung involvement. In Example 2, lung function assessments were conducted at baseline and at the time of response assessments: Day 1 of cycles 2-5 and then on Day 1 of every other cycle thereafter.

subjects with cGVHD [1] = assay: Example 2: 7-day LSS summary score; details: for Clinically significant improvement from baseline (LSS), Overall: decrease ≥7 points in LSS score, mITT population
Method: (§1) All responses were assessed by the study site investigators.

patients with cGVHD = assay: Example 1: corticosteroid and calcineurin inhibitor sparing; details: for Participants who discontinued CNI, number / Participants who discontinued CNI, percent / Participants with reduction in CNI dose, number / Participants with reduction in CNI dose, percent: baseline up to EOT
Method: Corticosteroid sparing. […] The mean corticosteroid dose was reduced by 45%. The median time to corticosteroid therapy discontinuation was 29 weeks (range, 8-77 weeks).
Change from Baseline in Corticosteroids Dose. An EOT visit was performed within 3 days after the participant's last dose of study drug. Baseline value was defined as valid and last non-missing value obtained within 28 days prior to participant receiving first study medication. The mITT population was analyzed, with the ‘overall number of participants analyzed’=participants with available data for this outcome measure.
Change from Baseline in Calcineurin Inhibitor (CNI). Calcineurin inhibitors included systemic tacrolimus and cyclosporine. Number of participants who took CNI at Baseline and had reduction and discontinuation in CNI use as compared to Baseline during the study are reported in this outcome measure. EOT visit was performed within 3 days after the participant's last dose of study drug. Baseline value was defined as valid and last non-missing value obtained within 28 days prior to participant receiving first study medication.

subjects with cGVHD [2] = assay: Example 2: failure-free survival, overall survival, NRM, relapse; details: for FFS at 6 mo (95% CI) / FFS at 12 mo (95% CI): mITT population
Method: as §1

[3] = Total N=54, listed as belumosudil

CC(C)NC(=O)COc1cccc(-c2nc(Nc3ccc4[nH]ncc4c3)c3ccccc3n2)c1 [Belumosudil, 2-{3-[4-(1H-indazol-5-ylamino)-2-quinazolinyl]phenoxy}-N-(propan-2-yl) acetamide]
Subjects with ^3 5% absolute improvement in % FEV1 from baseline (subjects with BOS; 59 subjects): 39%
Subjects with ^3 10% absolute improvement in % FEV1 from baseline (subjects with BOS; 59 subjects): 22%
Subjects with at least a 200 mL improvement in FEV1 from baseline (subjects with BOS; Example 2 subjects only): 36%
Subjects with ^3 5% absolute improvement in % FEV1 (subjects with BOS; baseline NIH lung score 1): 57%
Subjects with ^3 5% absolute improvement in % FEV1 (subjects with BOS; baseline NIH lung score 2): 13%
Subjects with ^3 5% absolute improvement in % FEV1 (subjects with BOS; baseline NIH lung score 3): 50%
Subjects with at least a 200 mL improvement in FEV1 (subjects with BOS; baseline lung score 1): 41%
Subjects with at least a 200 mL improvement in FEV1 (subjects with BOS; baseline lung score 2): 31%
Subjects with 200 mL improvement in FEV1 (subjects with BOS; non-responders): 19%
Subjects with ^3 5% absolute improvement in % FEV1 (subjects with BOS; non-responders): 18%
Subjects with 200 mL improvement in FEV1 (subjects with BOS; responders by NIH criteria): 66%
Subjects with ^3 5% absolute improvement in % FEV1 (subjects with BOS; responders by NIH criteria): 84%
Clinically meaningful improvement in 7-day LSS summary score (subjects with cGVHD [1]; 200 mg daily, nonresponders): 29%
Clinically meaningful improvement in 7-day LSS summary score (subjects with cGVHD [1]; 200 mg daily, responders): 69%
Clinically meaningful improvement in 7-day LSS summary score (subjects with cGVHD [1]; 200 mg twice daily, nonresponders): 33%
Clinically meaningful improvement in 7-day LSS summary score (subjects with cGVHD [1]; 200 mg twice daily, responders): 71%
Clinically significant improvement from baseline (LSS), Overall (subjects with cGVHD [1]; 200 mg daily (n = 66)): 39 (59) n (%)
Clinically significant improvement from baseline (LSS), Overall (subjects with cGVHD [1]; 200 mg twice daily (n = 66)): 41 (62) n (%)
CS discontinuation (patients with cGVHD; Cohort 1 200 mg QD): 4 (24, 7 to 50) %
Mean percent change in CS dose from baseline, nonresponder (patients with cGVHD; Cohort 1 200 mg QD): −26%
Mean percent change in CS dose from baseline, overall (patients with cGVHD; Cohort 1 200 mg QD): −50%
Mean percent change in CS dose from baseline, responder (patients with cGVHD; Cohort 1 200 mg QD): −63%
Proportion with CS reduction (patients with cGVHD; Cohort 1 200 mg QD): 13 (76, 50 to %
Change From Baseline in Corticosteroids Dose, Mean (Standard Deviation) (patients with cGVHD; Cohort 1 200 mg QD, baseline to end of treatment): −0.110 (0.101) milligrams per kilogram per day
Participants who discontinued CNI, number (patients with cGVHD; Cohort 1: 200 mg QD): 0
Participants who discontinued CNI, percent (patients with cGVHD; Cohort 1: 200 mg QD): (0%)
Participants with reduction in CNI dose, number (patients with cGVHD; Cohort 1: 200 mg QD): 5
Participants with reduction in CNI dose, percent (patients with cGVHD; Cohort 1: 200 mg QD): (83%)
CS discontinuation (patients with cGVHD; Cohort 2 200 mg BID): 2 (13, 2 to 38) %
Mean percent change in CS dose from baseline, nonresponder (patients with cGVHD; Cohort 2 200 mg BID): −37%
Mean percent change in CS dose from baseline, overall (patients with cGVHD; Cohort 2 200 mg BID): −36%
Mean percent change in CS dose from baseline, responder (patients with cGVHD; Cohort 2 200 mg BID): −36%
Proportion with CS reduction (patients with cGVHD; Cohort 2 200 mg BID): 9 (56, 30 to 80) %
Participants who discontinued CNI, number (patients with cGVHD; Cohort 2: 200 mg BID): 1
Participants who discontinued CNI, percent (patients with cGVHD; Cohort 2: 200 mg BID): 17%
Participants with reduction in CNI dose, number (patients with cGVHD; Cohort 2: 200 mg BID): 5
Participants with reduction in CNI dose, percent (patients with cGVHD; Cohort 2: 200 mg BID): 83%
CS discontinuation (patients with cGVHD; Cohort 3 400 mg QD): 4 (19, 5 to 42) %
Mean percent change in CS dose from baseline, nonresponder (patients with cGVHD; Cohort 3 400 mg QD): −19%
Mean percent change in CS dose from baseline, overall (patients with cGVHD; Cohort 3 400 mg QD): −47%
Mean percent change in CS dose from baseline, responder (patients with cGVHD; Cohort 3 400 mg QD): −63%
Proportion with CS reduction (patients with cGVHD; Cohort 3 400 mg QD): 14 (67, 43 to %
Participants who discontinued CNI, number (patients with cGVHD; Cohort 3: 400 mg QD): 3
Participants who discontinued CNI, percent (patients with cGVHD; Cohort 3: 400 mg QD): 27%
Participants with reduction in CNI dose, number (patients with cGVHD; Cohort 3: 400 mg QD): 6
Participants with reduction in CNI dose, percent (patients with cGVHD; Cohort 3: 400 mg QD): 55%
Mean percent change in CS dose from baseline, nonresponder (patients with cGVHD; Total): −26%
Mean percent change in CS dose from baseline, overall (patients with cGVHD; Total): −45%
Mean percent change in CS dose from baseline, responder (patients with cGVHD; Total): −55%
CS discontinuation (patients with cGVHD; Total N=54): Approximately 20%
CS discontinuation (patients with cGVHD; Total N=54, listed as KD025): 10 (19, 9 to 31) %
Proportion with CS reduction (patients with cGVHD; Total N=54, listed as KD025): 36 (67, 53 to %
CS discontinuation (patients with cGVHD; [3]): 19%
Proportion with CS reduction (patients with cGVHD; [3]): 67%
Mean corticosteroid dose reduction (patients with cGVHD; all patients): 45%
Mean corticosteroid dose reduction (patients with cGVHD; nonresponders): 26%
Median time to corticosteroid therapy discontinuation (patients with cGVHD; range, 8-77 weeks): 29 weeks
Mean corticosteroid dose reduction (patients with cGVHD; responders): 55%
FFS at 6 mo (95% CI) (subjects with cGVHD [2]; 200 mg daily (n = 66)): 73 (61-83) %
FFS at 12 mo (95% CI) (subjects with cGVHD [2]; 200 mg daily (n = 66)): 57 (44-68) %
FFS at 6 mo (95% CI) (subjects with cGVHD [2]; 200 mg twice daily (n = 66)): 76 (63-84) %
FFS at 12 mo (95% CI) (subjects with cGVHD [2]; 200 mg twice daily (n = 66)): 56 (43-67) %
Overall FFS rate at 12 months (subjects with cGVHD [2]; 95% CI, 47-64): 56%
Overall FFS rate at 6 months (subjects with cGVHD [2]; 95% CI, 66-81): 75%
2-year OS rate (subjects with cGVHD [2]; 95% CI, 82-93): 89%
Failure event: initiation of a new systemic cGVHD therapy (subjects with cGVHD [2]; in vivo): 38%
Relapse rate (subjects with cGVHD [2]; in vivo): 3%
